Results published in patent US10883137B2, “Method to detect activity of a polymerase” (MAX-PLANCK-GESELLSCHAFT ZUR FÖRDERUNG DER WISSENSCHAFTEN …, priority 2015, dated 2021).

T1: human mitochondrial DNA-polymerase (POLG) (Homo sapiens, UniProt P54098)
T1 sequence (P54098 1-1239): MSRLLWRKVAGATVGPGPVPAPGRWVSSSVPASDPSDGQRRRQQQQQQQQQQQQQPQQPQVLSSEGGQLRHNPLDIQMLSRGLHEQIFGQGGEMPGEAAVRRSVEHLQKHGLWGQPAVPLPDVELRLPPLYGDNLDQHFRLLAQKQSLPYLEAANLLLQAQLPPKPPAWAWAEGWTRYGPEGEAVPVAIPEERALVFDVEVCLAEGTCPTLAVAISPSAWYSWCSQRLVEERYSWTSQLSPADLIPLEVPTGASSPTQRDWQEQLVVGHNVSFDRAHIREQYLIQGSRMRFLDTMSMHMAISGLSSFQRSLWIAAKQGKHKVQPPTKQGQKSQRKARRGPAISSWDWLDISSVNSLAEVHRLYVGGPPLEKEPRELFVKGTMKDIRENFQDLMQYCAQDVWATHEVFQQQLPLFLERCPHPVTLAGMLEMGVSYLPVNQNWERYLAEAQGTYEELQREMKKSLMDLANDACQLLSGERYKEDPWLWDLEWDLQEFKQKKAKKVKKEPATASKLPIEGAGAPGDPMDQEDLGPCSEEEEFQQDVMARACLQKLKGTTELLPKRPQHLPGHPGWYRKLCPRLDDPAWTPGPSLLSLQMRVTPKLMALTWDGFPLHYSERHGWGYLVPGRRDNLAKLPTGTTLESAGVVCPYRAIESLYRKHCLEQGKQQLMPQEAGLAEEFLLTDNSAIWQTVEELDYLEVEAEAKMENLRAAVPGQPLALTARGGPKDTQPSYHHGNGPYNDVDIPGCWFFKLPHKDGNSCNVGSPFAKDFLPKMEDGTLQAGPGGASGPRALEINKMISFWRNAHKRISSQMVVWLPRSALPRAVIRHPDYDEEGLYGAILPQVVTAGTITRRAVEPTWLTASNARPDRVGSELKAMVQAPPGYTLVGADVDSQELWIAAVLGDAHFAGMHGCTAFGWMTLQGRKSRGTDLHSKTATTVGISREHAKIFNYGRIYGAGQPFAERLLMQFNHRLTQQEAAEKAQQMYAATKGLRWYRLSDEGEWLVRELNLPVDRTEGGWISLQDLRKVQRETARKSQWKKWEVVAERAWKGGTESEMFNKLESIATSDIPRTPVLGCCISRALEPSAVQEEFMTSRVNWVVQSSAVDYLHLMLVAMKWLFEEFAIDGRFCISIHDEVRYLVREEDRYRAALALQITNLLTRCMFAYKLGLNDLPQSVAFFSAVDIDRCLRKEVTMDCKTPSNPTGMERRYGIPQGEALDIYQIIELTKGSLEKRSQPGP
T1 sequence (Q9UHN1 1-485 partner): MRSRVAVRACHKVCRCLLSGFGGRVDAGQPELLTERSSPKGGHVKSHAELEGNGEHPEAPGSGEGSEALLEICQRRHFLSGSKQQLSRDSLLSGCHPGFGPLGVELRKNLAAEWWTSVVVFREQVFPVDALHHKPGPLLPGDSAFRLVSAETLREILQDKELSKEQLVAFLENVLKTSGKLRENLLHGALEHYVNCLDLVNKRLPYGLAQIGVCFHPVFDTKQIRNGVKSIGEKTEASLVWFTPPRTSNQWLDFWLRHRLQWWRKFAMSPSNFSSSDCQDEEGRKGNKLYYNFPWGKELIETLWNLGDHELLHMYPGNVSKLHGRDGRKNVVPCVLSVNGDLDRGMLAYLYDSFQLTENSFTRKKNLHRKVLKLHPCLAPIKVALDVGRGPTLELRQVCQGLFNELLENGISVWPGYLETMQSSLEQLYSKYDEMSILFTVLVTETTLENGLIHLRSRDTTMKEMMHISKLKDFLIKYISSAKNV


How the values were obtained:
Assay type in all cases: biochemical
[1] = biological target: human POLRMT (mitochondrial DNA-directed RNA polymerase) (Homo sapiens, UniProt O00411); experiment: Inhibitor activity determination, mitochondrial RNA-polymerase, 384-well dose-response format; details: for IC50: 384-well, 8-point dilution series, 200 μM to 5 μM, 500 μM dNTPs; for Hill slope: four-parameter non-linear regression fit; for res. activity at highest conc.: highest assay conc. 200 μM; for res. activity at highest conc. / res. activity at lowest conc.: relative to positive control; for res. activity at lowest conc.: lower limit of 5 μM
Sequence of human POLRMT (mitochondrial DNA-directed RNA polymerase) (O00411 42-1230): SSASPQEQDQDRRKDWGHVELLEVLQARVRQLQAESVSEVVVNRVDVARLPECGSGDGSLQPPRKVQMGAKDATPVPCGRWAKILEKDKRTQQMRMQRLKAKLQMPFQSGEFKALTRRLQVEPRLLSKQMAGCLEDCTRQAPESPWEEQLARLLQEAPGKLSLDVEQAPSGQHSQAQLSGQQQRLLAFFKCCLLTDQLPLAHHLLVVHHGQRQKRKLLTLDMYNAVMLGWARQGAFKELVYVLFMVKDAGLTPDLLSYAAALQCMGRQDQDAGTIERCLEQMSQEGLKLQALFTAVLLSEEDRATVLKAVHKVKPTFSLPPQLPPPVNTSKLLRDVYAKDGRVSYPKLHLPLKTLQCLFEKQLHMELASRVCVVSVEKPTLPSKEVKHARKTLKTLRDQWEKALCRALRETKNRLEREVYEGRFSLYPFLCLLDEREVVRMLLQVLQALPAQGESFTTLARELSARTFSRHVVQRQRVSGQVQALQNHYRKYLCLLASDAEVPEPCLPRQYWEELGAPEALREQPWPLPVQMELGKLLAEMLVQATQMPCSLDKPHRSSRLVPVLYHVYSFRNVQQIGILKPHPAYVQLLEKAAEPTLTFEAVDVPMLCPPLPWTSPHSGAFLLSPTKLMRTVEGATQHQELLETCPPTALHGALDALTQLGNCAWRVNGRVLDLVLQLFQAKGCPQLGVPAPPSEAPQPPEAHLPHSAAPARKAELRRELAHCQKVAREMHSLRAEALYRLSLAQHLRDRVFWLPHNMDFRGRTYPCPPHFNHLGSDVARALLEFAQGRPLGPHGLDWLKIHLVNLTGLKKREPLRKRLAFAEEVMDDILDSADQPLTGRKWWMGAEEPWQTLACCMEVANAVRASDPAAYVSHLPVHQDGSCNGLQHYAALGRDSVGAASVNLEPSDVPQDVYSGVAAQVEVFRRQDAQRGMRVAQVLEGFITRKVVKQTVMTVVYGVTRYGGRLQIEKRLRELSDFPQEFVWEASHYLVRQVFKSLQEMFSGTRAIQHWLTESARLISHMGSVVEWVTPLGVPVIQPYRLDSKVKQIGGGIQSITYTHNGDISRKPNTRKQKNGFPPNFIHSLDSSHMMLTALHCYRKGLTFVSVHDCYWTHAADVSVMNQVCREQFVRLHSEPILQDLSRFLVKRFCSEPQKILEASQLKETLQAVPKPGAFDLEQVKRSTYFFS
Excerpt: The assay protocol largely corresponds to the setup described in example 1 (Determination of activity of mitochondrial RNA-polymerase using the same initiator and probes than in example 1). For determination of the activity, however, the reaction mix always contains the nucleotide triphosphate mix, to enforce potential competition between inhibitor compound and substrate. Negative control samples are set up such that no template DNA (pUC-LSP) is included in the reaction mixture.
Pre-diluted protein samples are mixed with the dNTP-mixture in a reaction buffer, containing 10 mM TrisHCl pH 7.5, 10 mM MgCl2, 40 mM NaCl, 2 mM GSH, 0.01% (w/v) Tween-20 and 0.1 mg/mL BSA, to yield final assay concentrations of 7.5 nM (POLRMT), 90 nM (TFAM), 20 nM (TFB2M) and 500 μM (dNTPs). 5 μL of this mix are dispensed, depending on the chosen microtiter plate format, using multi-channel pipettes or a Thermo Multidrop® dispenser into the wells of a microtiter plate and incubated at room-temperature (RT) for 10 minutes.
Equal amounts of DMSO without any compound are added to positive control samples. An incubation step at RT for 10 minutes is applied to allow binding of compounds.
The enzymatic reaction is started by the addition of 5 μL of a mix of template DNA (pUC-LSP) in reaction buffer to a final concentration of 0.5 nM. The following mixing, incubation and detection steps correspond to the steps described in example 1.

[2] = biological target: T1, human mitochondrial DNA-polymerase (POLG); experiment: Inhibitor activity determination using human mitochondrial DNA-polymerase, 384-well dose-response format
Excerpt: The assay protocol largely corresponds to the setup described in example 1 (Determination of activity of mitochondrial RNA-polymerase using the same initiator and probes than in example 1). For determination of the activity of the mitochondrial replication, however, the two-subunit complex of the mitochondrial DNA-polymerase (POLG, NM_002693.2, NM_007215.3), the […] TWINKLE (NM_021830.4) and mitochondrial single-strand binding protein (SSBP1, NM_001256510.1) are used. Also, the reaction mix always contains the substrate nucleotide mix, to enforce potential competition between inhibitor compound and substrate.
For DNA-replication the template is generated using a circular, single-stranded DNA formed from pBlueskript SK+. To this circular, ssDNA, a primer with 42-nucleotide poly-T is annealed to form a fork structure. To make dsDNA, the primer is elongated with KOD polymerase, which synthesizes DNA around the entire circle, until again it reaches the primer. At this point DNA-synthesis stops and a double-stranded DNA template of about 3000 bp with an artificial replication fork is formed.
For activity determination, negative control samples are set up such that no template DNA is included in the assay mixture. Assay components are mixed in a buffer containing 25 mM TrisHCl pH 8.0, 5 mM MgCl2, 2 mM GSH, and 0.1 mg/mL BSA, to yield final assay concentrations of 30 nM POLG, 15 nM TWINKLE, 20 nM SSBP1, 250 μM dNTPs, 4 mM ATP as well as the two DNA-probes at 3 nM concentration each.
5 μL of this mix are dispensed, depending on the chosen microtiter plate format, using multi-channel pipettes or a Thermo Multidrop® dispenser into the wells of a microtiter plate and incubated at room-temperature (RT) for 10 minutes.
Chemical compounds under scrutiny in the assay are applied using contact-free acoustic droplet-dispensing (Labcyte Echo®) from 10 mM compound stocks (in 100% DMSO) in an appropriate 8-point dilution series to ensure accurate fitting of the resulting activity data (i.e. upper and lower asymptote reached). Equal amounts of DMSO without any compound are added to positive control samples. An incubation step at RT for 10 minutes is applied to allow binding of compounds.
The enzymatic reaction is started by the addition of 5 μL of a mix template DNA in reaction buffer to a final concentration of 5 nM. Following incubation for 1 h at 37° C., the reaction is stopped by addition of a detection mix, containing 3 nM streptavidin-coupled Eu-cryptate pre-incubated with an excess of an unspecific random oligonucleotide, in 20 mM Tris-HCl pH 8.0, 400 mM NaCl and 50 mM EDTA. HTRF-signals are measured following over-night incubation at room-temperature. […]

[3] = biological target: mitochondrial RNA-polymerase (POLRMT) (Homo sapiens, UniProt O00411); experiment: Activity of mitochondrial RNA-polymerase with and without TEFM (in vitro transcription, FRET detection); details: TEFM 100 nM; product formation quenched after 2 h
Sequence of mitochondrial RNA-polymerase (POLRMT) (O00411 42-1230): as above
Procedure: FIG. 8: is displaying the result of a comparative study of the effect of adding TEFM to the in vitro transcription reaction, as described in example 6. Two transcription reactions were set up either with or without the addition of TEFM (100 nM) and product formation quenched after 2 h. The specific FRET signal of the reaction without TEFM was used as a reference and normalized to 100%, while for the reaction including TEFM a signal increase of around 18% (±10%) was measured under the chosen conditions.
To enhance the enzymatic turnover and, thus, specific signal intensity of the mitochondrial in vitro transcription reaction, the mitochondrial transcription elongation factor (TEFM, NP_078959.3.) can be added to the assay reagent mixture.
The general workflow of the assay and composition of assay reagents are described in Posse et al (Nucl. Acids Res. 2015). A linearized pUC18 plasmid comprising the human mitochondrial light-strand promotor sequence (LSP) is used as transcription plasmid.
Adaptations made to the original protocol relate to the different detection method applied and correspond to the set-up described in example 1.

| Molecule | IC50 [1] | Hill slope [1] | res. activity at highest conc. [1] | res. activity at lowest conc. [1] | IC50 ([2]; 384-well, 200 μM to 5 μM, 250 μM dNTPs) | Hill slope ([2]; four-parameter non-linear regression fit) | res. activity at highest conc. ([2]; highest assay conc. 200 μM) | res. activity at lowest conc. ([2]; lower limit of 5 μM) | signal increase of specific FRET signal versus reaction without TEFM (100%) [3] |
| --- | --- | --- | --- | --- | --- | --- | --- | --- | --- |
| 2′methyl/OH-O-UTP | 84.5 µM | −0.85 | 8.6% | 102% | – | – | – | – | – |
| Cc1cn([C@H]2C[C@H](O)[C@@H](COP(=O)(O)OP(=O)(O)OP(=O)(O)O)O2)c(=O)[nH]c1=S [4-Thiothymidine-5′-Triphosphate] | – | – | – | – | 54.1 µM | −0.9462 | 22.6% | 92.79% | – |
| TEFM: mitochondrial transcription elongation factor (TEFM, NP_078959.3) (protein, UniProt Q96QE5 36-360, looked up) Transcription elongation …: KSTTPKKITPNVTFCDENAKEPENALDKLFSSEQQASILHVLNTASTKELEAFRLLRGRRSINIVEHRENFGPFQNLESLMNVPLFKYKSTVQVCNSILCPKTGREKRKSPENRFLRKLLKPDIERERLKAVNSIISIVFGTRRIAWAHLDRKLTVLDWQQSDRWSLMRGIYSSSVYLEEISSIISKMPKADFYVLEKTGLSIQNSSLFPILLHFHIMEAMLYALLNKTFAQDGQHQVLSMNRNAVGKHFELMIGDSRTSGKELVKQFLFDSILKADPRVFFPSDKIVHYRQMFLSTELQRVEELYDSLLQAIAFYELAVFDSQP | – | – | – | – | – | – | – | – | around 18% |

Results, then the molecule that gave them:

| IC50 [1] | Hill slope [1] | res. activity at highest conc. [1] | res. activity at lowest conc. [1] | IC50 ([2]; 384-well, 200 μM to 5 μM, 250 μM dNTPs) | Hill slope ([2]; four-parameter non-linear regression fit) | res. activity at highest conc. ([2]; highest assay conc. 200 μM) | res. activity at lowest conc. ([2]; lower limit of 5 μM) | signal increase of specific FRET signal versus reaction without TEFM (100%) [3] | Molecule |
| --- | --- | --- | --- | --- | --- | --- | --- | --- | --- |
| 73.4 µM | −2.15 | 46.9% | 88.32% | – | – | – | – | – | C[C@@]1(F)[C@H](O)[C@@H](COP(=O)(O)OP(=O)(O)OP(=O)(O)O)O[C@H]1n1cnc2c(=O)[nH]c(N)nc21 [2′methyl/F-GTP] |
| – | −2.05 | 65.5% | 96.5% | – | – | – | – | – | C[C@@]1(O)[C@H](O)[C@@H](COP(=O)(O)OP(=O)(O)OP(=O)(O)O)O[C@H]1n1cnc2c(=O)[nH]c(N)nc21 [2′methyl/OH-GTP] |
